These results are taken from patent US20220331348A1, “METHOD OF PREPARING PENTACYCLIC TRITERPENOID SAPONINS AND DRUG COMPOSITION” (CHINA PHARMACEUTICAL UNIVERSITY, priority 2019, published 2022).

In one assay the test system is AMPK in Huh-7 cells. The assay can be described thus: Activation activity on AMPK in Huh-7 cells (Western Blot). The assay is classed as cell-based. The note with it: 10 μM, 12 h, Western Blot gray scale, relative to DMSO = 1. Here is the method: The activation activity of a compound on AMPK in Huh-7 cells was detected by using Western Blot.
Cell culture conditions: Huh-7 cells were cultured in an incubator with 5% CO2 at 37° C. in DMEM complete medium (containing 10% fetal calf serum and 1% streptomycin/penicillin).
Antibody: anti-AMPK (CST, 2532S); anti-pAMPK (CST, 2535S).
Western Blot experiment: the influence of the compound on phosphorylation level of the AMPK in the Huh-7 cells was detected: cells with more than 90% cells alive were taken for the experiment. In a 12-well plate, the Huh-7 cells were plated in the plate at 250000 cells per well, the plate was placed in the incubator with 5% CO2 at 37° C. for culture, an original culture medium was discarded after 12 h, a complete medium containing the pentacyclic triterpenoid saponin was added, a final concentration of subject pentacyclic triterpenoid saponin was set to be 10 μM, and an administration time was set to be 12 h. A positive control compound employs AICAR (100 μM), metformin (70 μM) or A-769662 (100 μM). Then proteins were extracted for Western Blot detection.
Experimental result: a Western Blot experimental result was subjected to gray scale scanning, a p-AMPK/AMPK ratio of negative control DMSO was defined as 1, and a p-AMPK/AMPK ratio of the subject compound was a relative ratio of a negative control group. The larger the numerical value was, the stronger the activation activity of the AMPK of the compound was.

Assay [1] has as its system ulcerative colitis model mice induced by DSS. The assay can be described thus: Dextran sulphate sodium salt (DSS) induced ulcerative colitis model mice. Format: in vivo, mouse. Conditions: for DAI scores of the treatment group: DSS-induced mice, dose not given, vs model group. How it is done: C57BL/6 male mice with 6-8 weeks old were selected; a control group was fed with purified water; and a model group, a treatment group and a positive control group were fed with purified water containing 2% dextran sulphate sodium salt (DSS) (36000-50000 M.Wt) for 7 days and then with the purified water for 3 days, and drug intervention was conducted at the same time. The mice in the control group and the model group were orally administered with carboxymethyl cellulose sodium as a placebo, the mice in the treatment group were orally administered with the ziyuglycoside II (purchased from Shanghai Boka Chemistry Technology Co., Ltd) (with a dosage of 5 mg/kg), and the mice in the positive control group were orally administered with 5-aminosalicylic acid as a clinical drug (5-ASA, purchased from Shanghai Sangon Biological Engineering Co., Ltd) (with a dosage of 100 mg/kg). In the administration process, weight changes, feces characters and hematochezia conditions of the mice were observed and recorded every day and were scored, and disease activity indexes were calculated (Disease activity index, DAI).
A scoring rule and a calculation method were as follows: DAT=(weight score+diarrhea score+occult blood score)/3, wherein weight score: 0 (weight gained or unchanged), 1 (weight lost by 1-5%), 2 (weight lost by 6-10%), 3 (weight lost by 11-15%), 4 (weight lost by 15% or above); diarrhea score: 0 (normal feces), 2 (soft feces), 4 (feces sticking anuses or diarrhea); and occult blood score: 0 (negative occult blood), 2 (positive occult blood), and 4 (visible bleeding). Comparing differences in DAI of various groups, it can be known that the ziyuglycoside II has significant prevention and treatment effects on ulcerative colitis of the mice modeled by the dextran sulphate sodium salt (DSS).
The above mice were sacrificed by cervical dislocation at day 11, colon tissues were harvested, lengths of the colon tissues were measured for statistical summary, and differences in colon length of various groups were compared, from which, the ziyuglycoside II has significant prevention and treatment effect on the ulcerative colitis model mice.
Middle segments, with lengths of about 1 cm, of the colon tissues of the above mice were selected, soaked in a formalin solution for fixing overnight, embedded with paraffin and sliced, and the slices were subjected to HE staining. […] Particularly, compared with the positive drug group, the ziyuglycoside II has the advantage of maintaining a thickness of a muscular layer.
10 mg of proximal rectum segments of the colon tissues of the above mice were selected, PBS was added for homogenization, and centrifugation was conducted for taking a supernate. The supernate was subjected to ELISA detection, and protein quantification was conducted for inflammatory factors TNF-α and IL-lb.
10 mg of colon tissues of the above mice were selected for detection of ROS therein.
When the ulcerative colitis occurs, the inflammatory factors may destruct tight junction between intestinal tracts, and destruction of the tight junction enables functions of mucosal barriers to be lost and accelerates development of the diseases. 5 mg of colon tissues of the above mice were selected for qPCR analysis. […] This hints that the ziyuglycoside II further has the efficacy of increasing the expression level of the tight junction and then protecting a structure of each colon. […] Therefore, the ziyuglycoside II is expected to be useful for preparing the drug for preventing or treating the inflammatory bowel diseases such as the ulcerative colitis.

In assay [2] the test system is human ADPKD cyst lining epithelial cell lines WT9-12. Briefly: Proliferation of polycystic kidney epithelial cells (CCK-8 method). Format: cell-based. The note with it: 48 h; for inhibition at 10 µM: read-out: Inhibition rate (%). The text has this:
Cell and reagent: complete media for human ADPKD cyst lining epithelial cell lines WT9-12 and DMEM were purchased from ATCC Company; fetal calf serums were purchased from Gibco Company; Cell Counting Kit-8 was purchased from DOJINDO Company; Click-iT® EdU Imaging Kits were purchased from Invitrogen™ Thermo Fisher Scientific Company; Caspase -3/CPP32 Colorimetric Assay Kit was purchased from BioVision Company; Annexin V/PI double-staining flow type cell apoptosis detection kits were purchased from Bender Company; and anti-Phospho-(AMPKa, mTOR, p70S6K, 4E-BP1) antibodies were purchased from Cell Signaling Technology Company.
The influence of 2-DG on proliferation of the polycystic kidney epithelial cells was detected with a CCK-8 method: a DMEM complete medium containing 10% fetal calf serum (FBS) was prepared. The polycystic kidney epithelial cells were cultured in an incubator with 5% CO2 at 37° C. after being recovered, a solution was replaced every other day, the polycystic kidney epithelial cells were passaged every 2-3 days, and the cells were in a growing state of adhering to the wall. After trypsin enzyme digestion, cells were resuspended by using a complete medium, the concentration of a polycystic kidney epithelial cell suspension was regulated to be 3×10^7/L, the polycystic kidney epithelial cell suspension was inoculated to 96-well plate by […] per well for culture for 24 h, and the suspension was replaced by a culture medium containing 0.1% FBS for synchronization for 24 h.

[3] abbreviates: Homo sapiens, Epithelial cell, polycystic kidney epithelial cells, 10 μM, CCK-8, n = 6.
The mark [4] stands for this setting: DSS mice, 5 mg/kg orally, vs model group (FIG. 12 A).
Setting [5] is: DSS mice, 5 mg/kg, vs model group (FIG. 12 C).

Regarding `CC1(C)CC[C@]2(C(=O)O[C@@H]3O[C@H](CO)[C@@H](O)[C@H](O)[C@H]3O)CC[C@]3(C)C(=CC[C@@H]4[C@@]5(C)CC[C@H](O[C@@H]6O[C@H](C(=O)O)[C@@H](O)[C@H](O)[C@H]6O[C@@H]6O[C@H](CO)[C@@H](O)[C@H](O)[C@H]6O)C(C)(C)[C@@H]5CC[C@]43C)[C@@H]2C1` [(I), ginsenoside Ro], the pAMPK/AMPK ratio with AMPK in Huh-7 cells worked out at 2.39. In assay [1], the “DAI scores of the treatment group” value is “obviously lower than those of the model group”. Moreover, in assay [2] (setting [3]), the inhibition at 10 µM is 74.4 ± 2.3%.
For the compound `CC1(C)CC[C@]2(C(=O)O[C@@H]3O[C@H](CO[C@@H]4O[C@H](CO)[C@@H](O)[C@H](O)[C@H]4O)[C@@H](O)[C@H](O)[C@H]3O)CC[C@]3(C)C(=CC[C@@H]4[C@@]5(C)CC[C@H](O[C@@H]6OC[C@H](O)[C@H](O)[C@H]6O)[C@@](C)(CO)[C@@H]5CC[C@]43C)[C@@H]2C1` [(II), asperosaponin VI], in the assay on AMPK in Huh-7 cells, the pAMPK/AMPK ratio is on record as 2.90. In addition, the “DAI scores of the treatment group” value in assay [1] is on record as “obviously lower than those of the model group”. In addition, the IC50 in assay [2] (Homo sapiens, Epithelial cell, WT9-12 cells, CCK-8 (FIG. 15), read-out: median inhibitory concentration (IC50), proliferation of the polycystic kidney epithelial cells) came out at 3.2 µM.
Regarding `C[C@H]1O[C@@H](O[C@H]2CC[C@@]3(C)[C@@H](CC[C@]4(C)[C@@H]3C=C[C@]35OC[C@@]6(CCC(C)(C)C[C@H]63)[C@@H](O)C[C@]54C)[C@]2(C)CO)[C@H](O)[C@@H](O[C@@H]2O[C@H](CO)[C@@H](O)[C@H](O)[C@H]2O)[C@H]1O` [(VII), saikosaponin A], the pAMPK/AMPK ratio with AMPK in Huh-7 cells came to 1.76. Besides, in assay [1], the “DAI scores of the treatment group” value is “obviously lower than those of the model group”.
The matching figures for `C[C@H]1O[C@@H](O[C@H]2CC[C@@]3(C)[C@@H](CC[C@]4(C)[C@@H]3C=C[C@]35OC[C@@]6(CCC(C)(C)C[C@H]63)[C@H](O)C[C@]54C)[C@]2(C)CO)[C@H](O)[C@@H](O[C@@H]2O[C@H](CO)[C@@H](O)[C@H](O)[C@H]2O)[C@H]1O` [(VIII), saikosaponin D]: 2.0 and “obviously lower than those of the model group”.
Turning to `C[C@@H]1O[C@@H](O[C@H]2[C@H](O[C@H]3CC[C@@]4(C)[C@@H](CC[C@]5(C)[C@@H]4CC=C4[C@@H]6CC(C)(C)CC[C@]6(C(=O)O)CC[C@]45C)[C@]3(C)CO)OC[C@H](O)[C@@H]2O)[C@H](O)[C@H](O)[C@H]1O` [(X), α-hederin], the pAMPK/AMPK ratio with AMPK in Huh-7 cells came to 3.33. For the same compound, the “DAI scores of the treatment group” value in assay [1] was “obviously lower than those of the model group”. Moreover, in assay [2] (setting [3]), the inhibition at 10 µM was determined as 80.5 ± 3.2%.
Turning to `C[C@@H]1O[C@@H](O[C@H]2[C@H](O[C@H]3CC[C@@]4(C)[C@@H](CC[C@]5(C)[C@@H]4CC=C4[C@@H]6CC(C)(C)CC[C@]6(C(=O)O[C@@H]6O[C@H](CO[C@@H]7O[C@H](CO)[C@@H](O[C@@H]8O[C@@H](C)[C@H](O)[C@@H](O)[C@H]8O)[C@H](O)[C@H]7O)[C@@H](O)[C@H](O)[C@H]6O)CC[C@]45C)[C@]3(C)CO)OC[C@H](O)[C@@H]2O)[C@H](O)[C@H](O)[C@H]1O` [(XI), hederacoside C], the pAMPK/AMPK ratio in the assay with AMPK in Huh-7 cells worked out at 1.95. For the same compound, the “DAI scores of the treatment group” value in assay [1] was “obviously lower than those of the model group”. The “Inhibition rate (%)” value in assay [2] (polycystic kidney epithelial cells, 10 μM, CCK-8, n = 6) came out at 64.4 ± 2.6 %.
Take `C[C@@H]1CC[C@]2(C(=O)O[C@@H]3O[C@H](CO)[C@@H](O)[C@H](O)[C@H]3O)CC[C@]3(C)C(=CC[C@@H]4[C@@]5(C)CC[C@H](O[C@@H]6OC[C@H](O)[C@H](O)[C@H]6O)C(C)(C)[C@@H]5CC[C@]43C)[C@@H]2[C@]1(C)O` [(XII), ziyuglycoside I]: the pAMPK/AMPK ratio with AMPK in Huh-7 cells is 2.45. The “DAI scores of the treatment group” value in assay [1] is listed as “obviously lower than those of the model group”. The inhibition at 10 µM in assay [2] (setting [3]) is 69.2 ± 1.7%.
Take `C[C@@H]1CC[C@]2(C(=O)O)CC[C@]3(C)C(=CC[C@@H]4[C@@]5(C)CC[C@H](O[C@@H]6OC[C@H](O)[C@H](O)[C@H]6O)C(C)(C)[C@@H]5CC[C@]43C)[C@@H]2[C@]1(C)O` [(XIII), ziyuglycoside II]: the pAMPK/AMPK ratio in the assay with AMPK in Huh-7 cells amounted to 2.51. The “content of the ROS in colon tissues” value in assay [1] (DSS mice, 5 mg/kg (FIG. 12 B)) is reported as “significantly lowered”. For the same compound, the “colon histopathology (HE staining)” value in assay [1] (DSS mice, 5 mg/kg orally (FIG. 11)) is “infiltration of the inflammatory cells is reduced”. Besides, the colon lengths result in assay [1] (DSS mice, 5 mg/kg orally, day 11, vs model group (FIG. 10 B)) is listed as “significantly larger than those of the model group”. In assay [1] (DSS mice, 5 mg/kg orally, vs model group (FIG. 10 A)), the “DAI scores (disease activity index)” value is “obviously lower than that of the model group”. Moreover, in assay [1] (setting [4]), the “expression level of inflammatory factor IL-1 in colon tissue (ELISA)” value is listed as “significantly lower than those of the model group” and the “expression level of inflammatory factor TNF-α in colon tissue (ELISA)” value is recorded as “significantly lower than those of the model group”. Besides, in assay [1] (setting [5]), the “expression level of Claudin-1 in colon (qPCR)” value is given as “significantly increased”, the “expression level of Occludin in colon (qPCR)” value is recorded as “significantly increased” and the “expression level of ZO-1 in colon (qPCR)” value is “significantly increased”. The “DAI scores of the treatment group” value in assay [1] is “obviously lower than those of the model group”. Also, the inhibition at 10 µM in assay [2] (setting [3]) amounted to 72.1 ± 2%.
